Experimental data from patent US6022699A, “Myeloperoxidase assay of endotoxin-induced inflammation” (Alcon Laboratories, Inc., priority 1999, dated 2000).
“Also recorded” adds a separate entry of the source. Each block holds one compound with its values, some of them ahead of it.

Legend:
[1] = molecular target: T1, Human sputum myeloperoxidase (HSMPO) (Homo sapiens, UniProt P05164); assay: Spectrophotometric (460 nm) assay of MPO-catalyzed oxidation of o-DA; assay type: biochemical
T1 construct: mature light and heavy chains from one precursor
T1 sequence (P05164 165-745): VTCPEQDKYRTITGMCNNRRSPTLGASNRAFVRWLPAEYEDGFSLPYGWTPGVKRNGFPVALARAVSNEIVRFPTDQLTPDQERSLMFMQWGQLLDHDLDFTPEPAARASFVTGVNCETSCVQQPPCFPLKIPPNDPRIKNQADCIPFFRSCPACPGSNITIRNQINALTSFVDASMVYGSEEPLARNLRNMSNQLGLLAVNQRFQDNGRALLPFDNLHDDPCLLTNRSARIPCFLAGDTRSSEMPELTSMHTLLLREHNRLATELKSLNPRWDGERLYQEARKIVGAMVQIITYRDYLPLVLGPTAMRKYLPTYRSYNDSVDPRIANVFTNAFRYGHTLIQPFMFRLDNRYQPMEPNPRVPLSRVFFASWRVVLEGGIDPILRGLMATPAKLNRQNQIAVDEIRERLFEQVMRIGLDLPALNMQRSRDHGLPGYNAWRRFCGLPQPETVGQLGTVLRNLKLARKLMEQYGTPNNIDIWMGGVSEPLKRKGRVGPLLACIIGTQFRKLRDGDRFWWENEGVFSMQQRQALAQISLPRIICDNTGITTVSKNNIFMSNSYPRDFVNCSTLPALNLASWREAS
Experimental: N-ethylmaleimide (NEM), o-DA (3,3'-dimethoxybenzidine dihydrochloride), HTA-Br, LPS (lipopolysaccharide, E. coli 0111:B4), heparin, dexamethasone,histopaque 1083 and histopaque 1119 were obtained from Sigma Chemical Company, St. Louis, Mo. Dextran-100 was a product of Crescent Chemical Company, Hauppauge, N.Y. Hydrogen peroxide (30%) was obtained from J. T. Baker and stored at 4° C. All other chemicals used were of the highest purity available. Human sputum myeloperoxidase (HSMPO) was obtained from Elastin Products Co., Pacific, Mo. The enzyme (2.4 mg solid) was dissolved in 2.4 mL of 50 mM potassium phosphate buffer (pH 6.0), and stored in 0.1 mL aliquots at -20° C., then diluted 10-fold with 50 mM potassium phosphate buffer (pH 6.0) to provide a HSMPO concentration of 0.1 mg/mL.
To evaluate potential assay interference by ASC, conditions were selected which permitted the spectrophotometric assessment of ASC effects on the extent of o-DA oxidation. This was accomplished using sub-saturating concentrations of H2 O2 (37 mM), 1.5 mM o-DA a nd excess enzyme. MPO activity was assayed at room temperature in a final volume of 3.0 mL containing 50 mM potassium phosphate buffer (pH 6.0), 37 mM H2 O2, and 1.5 mM o-DA. Reactions were initiated by addition of 2 mg HSMPO: (a) control reaction, (b) ASC (3.2 mM) added 3.6 minutes after initiation of the reaction, (c) ASC (32 mM) added just prior to the initiation of the reaction and (d) ASC (64 mM) added just prior to the initiation of the reaction.
The effect of GSH on o-DA oxidation by HSMPO was assessed in an analogous fashion. MPO activity was assayed at room temperature in 3.0 mL of 50 mM potassium phosphate (pH 6.0), supplemented with 37 mM H2 O2, and 1.5 mM o-DA. (a) HSMPO (2 mg) was added 2 minutes after addition of NEM (6.6 mM) and GSH (1.65 mM), (b) NEM (6.6 mM) was added 5 minutes prior to addition of HSMPO (2 mg) (c) GSH (3.3 mM) was added 3.5 minutes after initiation of the reaction by addition of HSMPO (2 mg), (d) GSH (0.33 mM) was added just prior to initiation of the reaction with HSMPO (2 mg) with NEM (6.6 mM) added 20 seconds following initiation of the reaction, (e) GSH (0.33 mM) was added just prior to initiation of the reaction with HSMPO (2 mg) with NEM (6.6 mM) added 1.0 minute following initiation of the reaction, and (f) GSH (1.65 mM) was added just prior to initiation of the reaction.

[2] = system: PMN infiltrates within the different compartments of the eye; assay: Histopathologic evaluation of PMN infiltrates in eye sections; assay type: in vivo, Lewis rat; details: topical dexamethasone-treated animals
Experimental: Inhibition of PMN influx into ocular tissue of the Lewis rat by dexamethasone was evaluated as follows. Dexamethasone suspensions were prepared in a carbopol ophthalmic suspension vehicle at concentrations of 0.0033%, 0.01%, 0.033%, 0.04% and 0.10%, w/v. A 5 μL aliquot of test drug or vehicle was applied topically to each eye of the experimental animals 24, 20, and 4 hours prior to, at the time of, and 4 and 20 hours after LPS foot pad injection. Twenty-four (24) hours following LPS administration, eyes were enucleated, quickly frozen on dry ice and stored at -70° C. until used for tissue extraction and assessment of MPO activity. Alternatively, eyes were enucleated and fixed in a solution of phosphate buffered (40 mM) formalin (4%), pH 6.0. Eyes were embedded in paraffin and sectioned. Using light microscopy, hematoxylin- and eosin-stained sections were examined for the presence and distribution of PMN infiltrates within the different compartments of the eye. Infiltrates were ranked subjectively on a scale ranging from 0 to 5, where 0=not remarkable, 1=minimal, 2=slight/mild, 3=moderate, 4=moderately severe, and 5=severe/high.

effect on the 460 nm absorbance attained ([1]; ASC 3.2 mM added to control reaction when enzyme catalysis had ceased): little effect | development of absorbance at 460 nm ([1]; ASC 64 mM added just prior to initiation): fully abolished | interference in the spectrophotometric assay of MPO, ASC compared with GSH ([1]; concentration dependent): more effective than GSH
Compound: O=C1O[C@H]([C@@H](O)CO)C(O)=C1O [ASC, ascorbic acid]

Compound: N[C@@H](CCC(=O)N[C@@H](CS)C(=O)NCC(=O)O)C(=O)O [GSH, glutathione]
increase in 460 nm absorbancy ([1]; GSH 1.65 mM present at the initiation of the MPO reaction): fully prevented | change in absorbancy ([1]; GSH 3.3 mM added to control peroxidase reactions that had ceased): little change in absorbancy

Compound: CCN1C(=O)C=CC1=O [NEM, N-ethylmaleimide]
inhibitory effect of GSH ([1]; NEM 6.6 mM added together with GSH 1.65 mM 2 minutes prior to addition of enzyme): fully abolished | effect on MPO activity ([1]; NEM alone (6.6 mM), absence of GSH): does not affect MPO catalysis; also recorded: little effect on MPO activity

Compound: C[C@@H]1C[C@H]2[C@@H]3CCC4=CC(=O)C=C[C@]4(C)[C@@]3(F)[C@@H](O)C[C@]2(C)[C@@]1(O)C(=O)CO [dexamethasone]
PMNs in anterior and posterior compartments and associated ocular tissue (histopathology) [2]: dose dependent decline in PMNs
